{"source": "patent US10517889B2", "about": "“Modulators of SMAD7 expression” (Ionis Pharmaceuticals, Inc., priority 2017, dated 2019)", "key": {"[1]": {"test_system": "human SMAD7 mRNA", "test": "Dose-dependent inhibition of human SMAD7 mRNA expression in A431 cells, oligonucleotide added without transfection (Example 5, Study 1)", "format": "cell-based", "settings": "approximately 48 hours", "procedure,_shortened": "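A431 cells dosed with antisense oligonucleotide at 0.08–20.00 μM by free uptake immediately after plating, 48 h at 37° C. SMAD7 mRNA quantified by qRT-PCR (primer probe set RTS5062), normalised to RiboGreen total RNA. Values are % inhibition versus untreated cells.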"}, "[2]": {"test_system": "mouse Smad7 mRNA", "test": "Pharmacology: mouse Smad7 mRNA expression in liver, kidney, duodenum, ileum and colon after subcutaneous administration in CD-1 mice (Example 6)", "format": "in vivo", "settings": "50 mg/kg subcutaneous twice weekly for 7 weeks, normalized to GAPDH", "procedure,_shortened": "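Male CD-1 mice, 8-9 weeks old, got 50 mg/kg oligonucleotide subcutaneously twice weekly (100 mg/kg/week) for 7 weeks, with PBS controls; n=4 per group. At necropsy, Smad7 mRNA in liver, kidney, duodenum, ileum and colon was measured by RT-PCR (probe set HTS7555), normalized to GAPDH; one-way ANOVA with Dunnett's test.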"}, "[3]": {"test": "Blood chemistry markers after oral gavage in CD-1 mice (Example 7)", "format": "in vivo", "settings": "500 mg/kg oral gavage once daily for 4 weeks, day 30", "description": "The objective of this study was to evaluate the tolerability and pharmacodynamics of select Ionis human SMAD7 antisense oligonucleotides in CD-1 mice following 4 weeks of treatment. The mice were administered oligonucleotides by oral gavage.\nGroups of 7-8 week old male CD-1 mice were given an oral gavage dose once daily for 4 weeks of 500 mg/kg of Ionis SMAD7 oligonucleotides. Each group contained 8 mice. One group of male CD-1 mice was administered saline by oral gavage daily.\nLevels of transaminases, albumin, and BUN were measured using a Toshiba 200FR NEO chemistry analyzer (Toshiba Co., Japan)."}, "[4]": {"test": "Hematology assays after subcutaneous administration in beagle dogs (Example 8)", "format": "in vivo", "settings": "30 mg/kg subcutaneous days 1, 3, 5, 8, 15, 22, 29", "description": "(§1) There were 4 animals per group.\nBlood samples were collected from the cephalic vein or saphenous vein of each animal. About 0.5 mL of blood samples was put into tubes containing the potassium salt of EDTA. Blood obtained from all dog groups was measured using an ADVIA2120i hematology analyzer for measurements of the various blood cells, as well as other hematology markers."}, "[5]": {"test": "Oligonucleotide concentration in tissues by LC-MS/MS after subcutaneous administration in beagle dogs (Example 8)", "format": "in vivo", "settings": "30 mg/kg subcutaneous, 48 hours after the last dose", "description": "as §1\nOligonucleotide concentrations of both ION 830025 and ION 798781 were detected in various tissues by LC-MS/MS analysis. The results are presented below, expressed as μg/g tissue. The data was collected 48 hours after the last dose."}, "[6]": {"test": "Organ weights after oral gavage in beagle dogs (Example 12)", "settings": "200 mg oral gavage for 4 weeks, day 30", "experimental": "Groups of 24-25 week old male beagle dogs were administered 200 mg Ionis human SMAD7 oligonucleotide by oral gavage once a week for 4 weeks. There were 4 animals per group. A control group of dogs received oral administration of distilled water. Dogs were sacrificed on day 30 approximately 48 hours after the final dose and organs and plasma were harvested for further analysis."}, "[7]": {"test_system": "human peripheral blood mononuclear cells (PBMCs)", "test": "Human PBMC activation assay, cytokine levels (IL-10, IL-6, MCP-1, TNF-α) in supernatant after 24 hours (Example 9)", "settings": "human PBMC supernatant after 24 hours"}}}
{"substance": "830025 (antisense TTTGTAAATCGAAAGC; 3-10-3 cEt gapmer, further chemistry not given here) [compound 830025]", "values": [{"measurement": "% inhibition of SMAD7 mRNA expression", "setting": "[1]; 0.08 μM", "result": 16, "unit": "%"}, {"measurement": "% inhibition of SMAD7 mRNA expression", "setting": "[1]; 0.25 μM", "result": 30, "unit": "%"}, {"measurement": "% inhibition of SMAD7 mRNA expression", "setting": "[1]; 0.74 μM", "result": 22, "unit": "%"}, {"measurement": "% inhibition of SMAD7 mRNA expression", "setting": "[1]; 2.22 μM", "result": 41, "unit": "%"}, {"measurement": "% inhibition of SMAD7 mRNA expression", "setting": "[1]; 6.67 μM", "result": 54, "unit": "%"}, {"measurement": "% inhibition of SMAD7 mRNA expression", "setting": "[1]; 20.00 μM", "result": 67, "unit": "%"}, {"measurement": "IC50", "setting": "[1]; SMAD7 mRNA", "result": 4.7, "unit": "µM"}, {"measurement": "% inhibition of Smad7 mRNA expression (compared to control), Kidney", "setting": "[2]; kidney", "result": 45, "unit": "%"}, {"measurement": "% inhibition of Smad7 mRNA expression (compared to control), Liver", "setting": "[2]; liver", "result": 60, "unit": "%"}, {"measurement": "ALT", "setting": "[3]", "result": 34, "unit": "IU/L"}, {"measurement": "AST", "setting": "[3]", "result": 65, "unit": "IU/L"}, {"measurement": "Albumin", "setting": "[3]", "result": 3.3, "unit": "g/dL"}, {"measurement": "BUN", "setting": "[3]", "result": 21, "unit": "mg/dL"}, {"measurement": "Bilirubin", "setting": "[3]", "result": 0.2, "unit": "mg/dL"}, {"measurement": "Basophils", "setting": "[4]", "result": 0.3, "unit": "%"}, {"measurement": "Eosinophils", "setting": "[4]", "result": 2.4, "unit": "%"}, {"measurement": "Hematocrit", "setting": "[4]", "result": 43, "unit": "%"}, {"measurement": "Hemoglobin", "setting": "[4]", "result": 13.9, "unit": "g/dL"}, {"measurement": "Lymphocytes", "setting": "[4]", "result": 34, "unit": "%"}, {"measurement": "MCH", "setting": "[4]", "result": 21.7, "unit": "pg"}, {"measurement": "MCHC", "setting": "[4]", "result": 32.5, "unit": "g/dL"}, {"measurement": "MCV", "setting": "[4]", "result": 67, "unit": "fL"}, {"measurement": "Monocytes", "setting": "[4]", "result": 8.2, "unit": "%"}, {"measurement": "Neutrophils", "setting": "[4]", "result": 55, "unit": "%"}, {"measurement": "PLT", "setting": "[4]", "result": "250 ^3/μL"}, {"measurement": "RBC", "setting": "[4]", "result": "6.4 ^6/L"}, {"measurement": "Reticulocytes", "setting": "[4]", "result": 1.2, "unit": "%"}, {"measurement": "WBC", "setting": "[4]", "result": "5.7 ^3/μL"}, {"measurement": "Full length oligonucleotide, Distal colon", "setting": "[5]; distal colon", "result": 49, "unit": "µg/g"}, {"measurement": "Full length oligonucleotide, Duodenum", "setting": "[5]; duodenum", "result": 97, "unit": "µg/g"}, {"measurement": "Full length oligonucleotide, Ileum", "setting": "[5]; ileum", "result": 41, "unit": "µg/g"}, {"measurement": "Full length oligonucleotide, Kidney", "setting": "[5]; kidney", "result": 1470, "unit": "µg/g"}, {"measurement": "Full length oligonucleotide, Liver", "setting": "[5]; liver", "result": 466, "unit": "µg/g"}, {"measurement": "Full length oligonucleotide, Proximal colon", "setting": "[5]; proximal colon", "result": 31, "unit": "µg/g"}, {"measurement": "Kidney weight (% of control)", "setting": "[6]", "result": "99 % of control"}, {"measurement": "Liver weight (% of control)", "setting": "[6]", "result": "79 % of control"}, {"measurement": "Spleen weight (% of control)", "setting": "[6]", "result": "87 % of control"}, {"measurement": "Levels of IL-6", "setting": "[7]; 0.0128 μM oligonucleotide", "result": 3.1, "unit": "pg/mL"}, {"measurement": "Levels of IL-10", "setting": "[7]; 0.0128 μM oligonucleotide", "result": 1.5, "unit": "pg/mL"}, {"measurement": "Levels of MCP-1", "setting": "[7]; 0.0128 μM oligonucleotide", "result": 309.7, "unit": "pg/mL"}, {"measurement": "Levels of TNF-α", "setting": "[7]; 0.0128 μM oligonucleotide", "result": 2.8, "unit": "pg/mL"}, {"measurement": "Levels of IL-6", "setting": "[7]; 0.064 μM oligonucleotide", "result": 3.8, "unit": "pg/mL"}, {"measurement": "Levels of IL-10", "setting": "[7]; 0.064 μM oligonucleotide", "result": 1.9, "unit": "pg/mL"}, {"measurement": "Levels of MCP-1", "setting": "[7]; 0.064 μM oligonucleotide", "result": 353.9, "unit": "pg/mL"}, {"measurement": "Levels of TNF-α", "setting": "[7]; 0.064 μM oligonucleotide", "result": 2.9, "unit": "pg/mL"}, {"measurement": "Levels of IL-6", "setting": "[7]; 0.32 μM oligonucleotide", "result": 5.0, "unit": "pg/mL"}, {"measurement": "Levels of IL-10", "setting": "[7]; 0.32 μM oligonucleotide", "result": 2.6, "unit": "pg/mL"}, {"measurement": "Levels of MCP-1", "setting": "[7]; 0.32 μM oligonucleotide", "result": 387.7, "unit": "pg/mL"}, {"measurement": "Levels of TNF-α", "setting": "[7]; 0.32 μM oligonucleotide", "result": 3.9, "unit": "pg/mL"}, {"measurement": "Levels of IL-6", "setting": "[7]; 1.6 μM oligonucleotide", "result": 12.9, "unit": "pg/mL"}, {"measurement": "Levels of IL-10", "setting": "[7]; 1.6 μM oligonucleotide", "result": 3.6, "unit": "pg/mL"}, {"measurement": "Levels of MCP-1", "setting": "[7]; 1.6 μM oligonucleotide", "result": 554.3, "unit": "pg/mL"}, {"measurement": "Levels of TNF-α", "setting": "[7]; 1.6 μM oligonucleotide", "result": 5.4, "unit": "pg/mL"}, {"measurement": "Levels of IL-6", "setting": "[7]; 8 μM oligonucleotide", "result": 17.8, "unit": "pg/mL"}, {"measurement": "Levels of IL-10", "setting": "[7]; 8 μM oligonucleotide", "result": 2.9, "unit": "pg/mL"}, {"measurement": "Levels of MCP-1", "setting": "[7]; 8 μM oligonucleotide", "result": 750.0, "unit": "pg/mL"}, {"measurement": "Levels of TNF-α", "setting": "[7]; 8 μM oligonucleotide", "result": 6.7, "unit": "pg/mL"}, {"measurement": "Levels of IL-6", "setting": "[7]; 40 μM oligonucleotide", "result": 19.5, "unit": "pg/mL"}, {"measurement": "Levels of IL-10", "setting": "[7]; 40 μM oligonucleotide", "result": 1.4, "unit": "pg/mL"}, {"measurement": "Levels of MCP-1", "setting": "[7]; 40 μM oligonucleotide", "result": 580.8, "unit": "pg/mL"}, {"measurement": "Levels of TNF-α", "setting": "[7]; 40 μM oligonucleotide", "result": 7.6, "unit": "pg/mL"}, {"measurement": "Levels of IL-6", "setting": "[7]; 200 μM oligonucleotide", "result": 30.6, "unit": "pg/mL"}, {"measurement": "Levels of IL-10", "setting": "[7]; 200 μM oligonucleotide", "result": 0.7, "unit": "pg/mL"}, {"measurement": "Levels of MCP-1", "setting": "[7]; 200 μM oligonucleotide", "result": 52.7, "unit": "pg/mL"}, {"measurement": "Levels of TNF-α", "setting": "[7]; 200 μM oligonucleotide", "result": 4.9, "unit": "pg/mL"}]}
